Reference: ChEMBL document CHEMBL1201862, “PubChem BioAssay data set” (2004)
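All cell lines were grown in 96-well plates and treated with compound for 48 hours. The concentration for 50% growth inhibition is given as GI50.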 Active and inactive are the calls of the source. Rule as the data show it: active = GI50 up to about 1.1 µM and inactive = higher.

Experiments:
Assay in all cases: NCI-60 cell line screen, 48 h
K562 = tested on: K562
SF-268 = tested on: SF-268
SF-539 = tested on: SF-539
CCRF-CEM = tested on: CCRF-CEM
SK-MEL-5 = tested on: SK-MEL-5
SF-295 = tested on: SF-295
RXF 393 = tested on: RXF 393
DMS-273 = tested on: DMS-273
U-251 = tested on: U-251
NCI-H23 = tested on: NCI-H23
OVCAR-8 = tested on: OVCAR-8
TK-10 = tested on: TK-10
OVCAR-3 = tested on: OVCAR-3
SR = tested on: SR
Malme-3M = tested on: Malme-3M
NCI-H460 = tested on: NCI-H460
ACHN = tested on: ACHN
SNB-78 = tested on: SNB-78
HCT-15 = tested on: HCT-15
UACC-257 = tested on: UACC-257
A549 = tested on: A549
UACC-62 = tested on: UACC-62
786-0 = tested on: 786-0
UO-31 = tested on: UO-31
HOP-92 = tested on: HOP-92
A498 = tested on: A498
KM-20L2 = tested on: KM-20L2
OVCAR-5 = tested on: OVCAR-5
HOP-18 = tested on: HOP-18
SK-MEL-28 = tested on: SK-MEL-28
HOP-62 = tested on: HOP-62
HCT-116 = tested on: HCT-116
SNB-19 = tested on: SNB-19
COLO 205 = tested on: COLO 205
CAKI-1 = tested on: CAKI-1
MOLT-4 = tested on: MOLT-4
KM12 = tested on: KM12
SK-MEL-2 = tested on: SK-MEL-2
RPMI-8226 = tested on: RPMI-8226
LXFL 529 = tested on: LXFL 529
IGROV-1 = tested on: IGROV-1
SNB-75 = tested on: SNB-75
HCC 2998 = tested on: HCC 2998
DLD-1 = tested on: DLD-1
OVCAR-4 = tested on: OVCAR-4
NCI-H522 = tested on: NCI-H522
EKVX = tested on: EKVX
HL-60 = tested on: HL-60
SK-OV-3 = tested on: SK-OV-3
HT-29 = tested on: HT-29
M14 = tested on: M14
NCI-H226 = tested on: NCI-H226
SN12C = tested on: SN12C
SW-620 = tested on: SW-620
M19-MEL = tested on: M19-MEL
DMS-114 = tested on: DMS-114
LOX IMVI = tested on: LOX IMVI

O=C1c2cccc3cc([N+](=O)[O-])cc(c23)C(=O)N1CCNCCNCCNCCN1C(=O)c2cccc3cc([N+](=O)[O-])cc(c23)C1=O
GI50 (K562): < 0.001 µM (active) | GI50 (SF-268): 0.00564 µM (active) | GI50 (SF-539): 0.00547 µM (active) | GI50 (CCRF-CEM): 0.00122 µM (active) | GI50 (SK-MEL-5): 0.152 µM (active) | GI50 (SF-295): < 0.001 µM (active) | GI50 (RXF 393): 0.122 µM (active) | GI50 (DMS-273): < 0.001 µM (active) | GI50 (U-251): 0.00198 µM (active) | GI50 (NCI-H23): 0.00193 µM (active) | GI50 (OVCAR-8): < 0.001 µM (active) | GI50 (TK-10): 0.092 µM (active) | GI50 (OVCAR-3): 0.109 µM (active) | GI50 (SR): 0.01 µM (active) | GI50 (Malme-3M): 0.111 µM (active) | GI50 (NCI-H460): < 0.001 µM (active) | GI50 (ACHN): 0.01 µM (active) | GI50 (SNB-78): 0.0553 µM (active) | GI50 (HCT-15): 0.01 µM | GI50 (UACC-257): 0.0311 µM (active) | GI50 (A549): < 0.001 µM (active) | GI50 (UACC-62): 0.00322 µM (active) | GI50 (786-0): < 0.001 µM (active) | GI50 (UO-31): 0.033 µM (active) | GI50 (HOP-92): 0.00343 µM (active) | GI50 (A498): 0.0128 µM (active) | GI50 (KM-20L2): 0.01 µM (active) | GI50 (OVCAR-5): 0.0111 µM (active) | GI50 (HOP-18): 0.149 µM (active) | GI50 (SK-MEL-28): 0.0311 µM (active) | GI50 (HOP-62): 0.00143 µM (active) | GI50 (HCT-116): < 0.001 µM (active) | GI50 (SNB-19): < 0.001 µM (active) | GI50 (COLO 205): 0.01 µM (active) | GI50 (CAKI-1): < 0.001 µM (active) | GI50 (MOLT-4): < 0.001 µM (active) | GI50 (KM12): < 0.001 µM (active) | GI50 (SK-MEL-2): 0.00995 µM (active) | GI50 (RPMI-8226): 0.01 µM (active) | GI50 (LXFL 529): 0.01 µM (active) | GI50 (IGROV-1): 0.01 µM (active) | GI50 (SNB-75): 0.0108 µM (active) | GI50 (HCC 2998): 0.01 µM (active) | GI50 (DLD-1): < 0.001 µM (active) | GI50 (OVCAR-4): 0.0117 µM (active) | GI50 (NCI-H522): 0.116 µM (active) | GI50 (EKVX): 0.112 µM (active) | GI50 (HL-60): 0.01 µM (active) | GI50 (SK-OV-3): 0.0212 µM (active) | GI50 (HT-29): < 0.001 µM (active) | GI50 (M14): 0.0188 µM (active) | GI50 (NCI-H226): 0.124 µM (active) | GI50 (SN12C): 0.00251 µM (active) | GI50 (SW-620): < 0.001 µM (active)

CCCCCCCCCCCCCCCC/C(C(=O)OC)=C(/O)C(=O)OCC
GI50 (K562): > 100 µM (inactive) | GI50 (SF-268): > 100 µM (inactive) | GI50 (SF-539): > 100 µM (inactive) | GI50 (CCRF-CEM): > 100 µM (inactive) | GI50 (SK-MEL-5): > 100 µM (inactive) | GI50 (SF-295): > 100 µM (inactive) | GI50 (RXF 393): > 100 µM (inactive) | GI50 (DMS-273): > 100 µM (inactive) | GI50 (U-251): > 100 µM (inactive) | GI50 (NCI-H23): > 100 µM (inactive) | GI50 (OVCAR-8): > 100 µM (inactive) | GI50 (M19-MEL): > 100 µM (inactive) | GI50 (TK-10): > 100 µM (inactive) | GI50 (OVCAR-3): > 100 µM (inactive) | GI50 (SR): 95.3 µM (inactive) | GI50 (Malme-3M): > 100 µM (inactive) | GI50 (NCI-H460): > 100 µM (inactive) | GI50 (ACHN): 70.5 µM (inactive) | GI50 (SNB-78): > 100 µM (inactive) | GI50 (DMS-114): > 100 µM (inactive) | GI50 (HCT-15): > 100 µM | GI50 (UACC-257): > 100 µM (inactive) | GI50 (A549): > 100 µM (inactive) | GI50 (UACC-62): > 100 µM (inactive) | GI50 (786-0): > 100 µM (inactive) | GI50 (UO-31): 94 µM (inactive) | GI50 (HOP-92): 38.9 µM (inactive) | GI50 (A498): > 100 µM (inactive) | GI50 (KM-20L2): > 100 µM (inactive) | GI50 (OVCAR-5): > 100 µM (inactive) | GI50 (HOP-18): > 100 µM (inactive) | GI50 (SK-MEL-28): > 100 µM (inactive) | GI50 (HOP-62): > 100 µM (inactive) | GI50 (HCT-116): > 100 µM (inactive) | GI50 (SNB-19): > 100 µM (inactive) | GI50 (COLO 205): > 100 µM (inactive) | GI50 (CAKI-1): > 100 µM (inactive) | GI50 (MOLT-4): > 100 µM (inactive) | GI50 (LOX IMVI): > 100 µM (inactive) | GI50 (KM12): > 100 µM (inactive) | GI50 (SK-MEL-2): 68.9 µM (inactive) | GI50 (RPMI-8226): > 100 µM (inactive) | GI50 (LXFL 529): > 100 µM (inactive) | GI50 (IGROV-1): > 100 µM (inactive) | GI50 (SNB-75): 55 µM (inactive) | GI50 (HCC 2998): > 100 µM (inactive) | GI50 (DLD-1): > 100 µM (inactive) | GI50 (OVCAR-4): > 100 µM (inactive) | GI50 (NCI-H522): > 100 µM (inactive) | GI50 (HL-60): > 100 µM (inactive) | GI50 (SK-OV-3): > 100 µM (inactive) | GI50 (HT-29): > 100 µM (inactive) | GI50 (M14): > 100 µM (inactive) | GI50 (NCI-H226): > 100 µM (inactive) | GI50 (SN12C): > 100 µM (inactive) | GI50 (SW-620): > 100 µM (inactive)
